How the values were obtained:
[1] = target: Phosphatidylinositol 4-kinase beta (Homo sapiens) (UniProt Q9UBF8); settings: Compound concentration 1000.0 nM
[2] = target: Ribosomal protein S6 kinase alpha-5 (Homo sapiens) (UniProt O75582); settings: Compound concentration 1000.0 nM
[3] = target: Histamine H4 receptor (Homo sapiens) (UniProt Q9H3N8); experiment: H4/H AG Cerep selectivity data (BI); settings: filed as agonist, Compound concentration 20.0 uM
[4] = target: Melanocortin receptor 4 (Homo sapiens) (UniProt P32245); experiment: MC4/HU Cerep selectivity data (BI); settings: Compound concentration 20.0 uM
[5] = test system: Tyrosine-protein kinase ABL1 (Homo sapiens), P00519 [T315I]; experiment: ABL1 T315I Invitrogen selectivity data (BI); settings: Compound concentration 3.0 uM
[6] = target: Androgen receptor (Rattus norvegicus) (UniProt P15207); experiment: TESTOST/RA Eurofins-Panlabs selectivity data (BI); settings: Compound concentration 10.0 uM
[7] = target: ALK tyrosine kinase receptor (Homo sapiens) (UniProt Q9UM73); experiment: ALK Invitrogen selectivity data (BI); settings: Compound concentration 3.0 uM
[8] = target: Angiotensin-converting enzyme 2 (Homo sapiens) (UniProt Q9BYF1); experiment: ACE-2(HU) Cerep selectivity data (BI); settings: Compound concentration 20.0 uM
[9] = target: Dual specificity tyrosine-phosphorylation-regulated kinase 3 (Homo sapiens) (UniProt O43781); experiment: DYRK3 Invitrogen selectivity data (BI); settings: Compound concentration 3.0 uM
[10] = target: Sodium channel regulatory subunit beta-1 (Rattus norvegicus) (UniProt Q00954); experiment: NA+/SITE2/RA Eurofins-Panlabs selectivity data (BI); settings: Compound concentration 10.0 uM
[11] = target: 5-hydroxytryptamine receptor 2A (Homo sapiens) (UniProt P28223); experiment: 5HT2AH_AGON Cerep selectivity data (BI); settings: filed as agonist, Compound concentration 20.0 uM
[12] = test system: Tyrosine-protein kinase ABL1 (Homo sapiens), P00519 [G250E]; experiment: ABL1 G250E Invitrogen selectivity data (BI); settings: Compound concentration 3.0 uM
[13] = target: Histamine H3 receptor (Homo sapiens) (UniProt Q9Y5N1); experiment: H3/H Eurofins-Panlabs selectivity data (BI); settings: Compound concentration 10.0 uM
[14] = target: Mitogen-activated protein kinase 1 (Homo sapiens) (UniProt P28482); experiment: MAPK1 Invitrogen selectivity data (BI); settings: Compound concentration 3.0 uM
[15] = target: Kappa-type opioid receptor (Rattus norvegicus) (UniProt P34975); experiment: KAPPA/R Cerep selectivity data (BI); settings: Compound concentration 20.0 uM
[16] = target: Fibroblast growth factor receptor 1 (Homo sapiens) (UniProt P11362); experiment: FGFR1 Invitrogen selectivity data (BI); settings: Compound concentration 3.0 uM
[17] = target: T1, Discoidin domain-containing receptor 2 (Homo sapiens) (UniProt Q16832); experiment: DDR2 Invitrogen selectivity data (BI); settings: Compound concentration 3.0 uM
T1 sequence (whole entry): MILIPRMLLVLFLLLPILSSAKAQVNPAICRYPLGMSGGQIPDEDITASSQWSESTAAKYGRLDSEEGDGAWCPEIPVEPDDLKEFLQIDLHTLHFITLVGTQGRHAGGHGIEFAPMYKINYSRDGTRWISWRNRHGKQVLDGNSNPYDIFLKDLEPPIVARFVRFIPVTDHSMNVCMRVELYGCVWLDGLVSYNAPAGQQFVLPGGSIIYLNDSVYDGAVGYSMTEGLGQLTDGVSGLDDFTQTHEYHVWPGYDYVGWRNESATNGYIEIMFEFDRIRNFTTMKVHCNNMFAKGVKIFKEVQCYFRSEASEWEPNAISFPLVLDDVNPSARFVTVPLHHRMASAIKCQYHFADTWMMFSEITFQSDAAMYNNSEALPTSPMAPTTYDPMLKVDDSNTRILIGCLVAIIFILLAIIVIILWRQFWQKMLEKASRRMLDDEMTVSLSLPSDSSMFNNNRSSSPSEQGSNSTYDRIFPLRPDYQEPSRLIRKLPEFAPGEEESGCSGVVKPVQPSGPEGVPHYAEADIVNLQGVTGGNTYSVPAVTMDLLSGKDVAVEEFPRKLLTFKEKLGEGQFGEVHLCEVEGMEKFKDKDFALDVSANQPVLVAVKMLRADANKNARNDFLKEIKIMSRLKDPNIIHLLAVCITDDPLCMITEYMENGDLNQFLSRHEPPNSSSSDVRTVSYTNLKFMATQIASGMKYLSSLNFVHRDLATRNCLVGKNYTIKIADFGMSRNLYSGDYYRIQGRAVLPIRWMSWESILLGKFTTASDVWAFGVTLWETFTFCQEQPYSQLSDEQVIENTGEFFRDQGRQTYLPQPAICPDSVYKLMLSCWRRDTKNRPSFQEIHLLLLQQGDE

[18] = target: 5-hydroxytryptamine receptor 1D (Homo sapiens) (UniProt P28221); experiment: 5HT1D/H AG Cerep selectivity data (BI); settings: filed as agonist, Compound concentration 20.0 uM
[19] = target: Guanylate cyclase soluble subunit alpha-1 (Bos taurus) (UniProt P19687); experiment: GUACYCBASAL Cerep selectivity data (BI); settings: Homo sapiens; Compound concentration 20.0 uM
[20] = test system: Epidermal growth factor receptor (Homo sapiens), P00533 [L861Q]; experiment: EGFR L861Q Invitrogen selectivity data (BI); settings: Compound concentration 3.0 uM
[21] = target: Muscarinic acetylcholine receptor M3 (Homo sapiens) (UniProt P20309); experiment: M3/HU Eurofins-Panlabs selectivity data (BI); settings: Compound concentration 10.0 uM
[22] = target: RAF proto-oncogene serine/threonine-protein kinase (Homo sapiens) (UniProt P04049); experiment: RAF1 Invitrogen selectivity data (BI); settings: Compound concentration 3.0 uM
[23] = target: L-type Ca2+ channel (diltiazem site), Cav1.2 alpha-1C (Rattus norvegicus, UniProt P22002); experiment: CA+/DILSI/RA Eurofins-Panlabs selectivity data (BI); settings: compound concentration 10 uM, read-out: % Ctrl
[24] = target: Ribosomal protein S6 kinase alpha-2 (Homo sapiens) (UniProt Q15349); experiment: RPS6KA2 Invitrogen selectivity data (BI); settings: Compound concentration 3.0 uM
[25] = target: Melanocyte-stimulating hormone receptor (Mus musculus) (UniProt Q01727); experiment: MC1_AGON Cerep selectivity data (BI); settings: filed as agonist, Compound concentration 20.0 uM
[26] = target: T2, Serine/threonine-protein kinase 3 (Homo sapiens) (UniProt Q13188); experiment: STK3 Invitrogen selectivity data (BI); settings: Compound concentration 3.0 uM
T2 sequence (whole entry): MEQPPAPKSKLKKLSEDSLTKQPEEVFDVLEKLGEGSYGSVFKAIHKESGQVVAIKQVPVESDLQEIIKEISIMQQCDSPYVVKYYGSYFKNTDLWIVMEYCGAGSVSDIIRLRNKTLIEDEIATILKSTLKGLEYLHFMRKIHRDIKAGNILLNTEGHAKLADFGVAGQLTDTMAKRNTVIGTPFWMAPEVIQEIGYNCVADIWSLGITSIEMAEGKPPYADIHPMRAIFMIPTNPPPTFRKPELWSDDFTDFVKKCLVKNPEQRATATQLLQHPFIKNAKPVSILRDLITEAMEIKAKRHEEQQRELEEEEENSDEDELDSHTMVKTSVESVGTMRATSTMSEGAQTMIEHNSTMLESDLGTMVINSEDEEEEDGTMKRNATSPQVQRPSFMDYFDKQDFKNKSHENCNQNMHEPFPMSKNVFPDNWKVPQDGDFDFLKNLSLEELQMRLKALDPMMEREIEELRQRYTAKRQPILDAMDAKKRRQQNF

Chain of Sodium channel regulatory subunit beta-1 (Rattus norvegicus) (Q00954 whole entry): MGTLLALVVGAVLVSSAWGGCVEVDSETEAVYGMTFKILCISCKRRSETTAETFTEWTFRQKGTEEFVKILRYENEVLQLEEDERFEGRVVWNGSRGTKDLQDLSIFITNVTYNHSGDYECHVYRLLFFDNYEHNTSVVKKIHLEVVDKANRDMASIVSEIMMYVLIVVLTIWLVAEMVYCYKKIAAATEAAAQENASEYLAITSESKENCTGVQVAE
Chain of Phosphatidylinositol 4-kinase beta (Homo sapiens) (Q9UBF8 2-816 limits assumed): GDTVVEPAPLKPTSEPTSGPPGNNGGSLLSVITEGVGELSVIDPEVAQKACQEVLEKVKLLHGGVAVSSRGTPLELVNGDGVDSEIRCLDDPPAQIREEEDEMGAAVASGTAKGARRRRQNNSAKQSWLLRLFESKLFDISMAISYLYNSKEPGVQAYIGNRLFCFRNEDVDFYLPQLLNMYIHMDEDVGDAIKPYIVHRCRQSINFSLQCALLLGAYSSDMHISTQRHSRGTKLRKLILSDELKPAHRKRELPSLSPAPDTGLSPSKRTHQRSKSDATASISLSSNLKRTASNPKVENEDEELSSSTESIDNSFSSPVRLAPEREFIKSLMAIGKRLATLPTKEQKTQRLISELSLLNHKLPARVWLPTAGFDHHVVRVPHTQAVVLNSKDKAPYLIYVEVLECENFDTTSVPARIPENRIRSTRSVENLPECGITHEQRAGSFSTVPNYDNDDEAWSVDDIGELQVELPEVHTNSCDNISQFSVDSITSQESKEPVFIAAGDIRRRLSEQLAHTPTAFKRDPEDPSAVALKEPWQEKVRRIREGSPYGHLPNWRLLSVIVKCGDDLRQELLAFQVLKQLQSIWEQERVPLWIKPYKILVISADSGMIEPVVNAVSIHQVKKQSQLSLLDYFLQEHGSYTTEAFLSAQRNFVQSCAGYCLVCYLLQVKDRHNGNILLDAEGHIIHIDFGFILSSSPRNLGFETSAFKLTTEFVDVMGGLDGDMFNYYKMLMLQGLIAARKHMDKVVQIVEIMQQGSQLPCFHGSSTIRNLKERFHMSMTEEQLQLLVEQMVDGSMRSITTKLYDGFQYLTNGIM
Chain of 5-hydroxytryptamine receptor 2A (Homo sapiens) (P28223 whole entry): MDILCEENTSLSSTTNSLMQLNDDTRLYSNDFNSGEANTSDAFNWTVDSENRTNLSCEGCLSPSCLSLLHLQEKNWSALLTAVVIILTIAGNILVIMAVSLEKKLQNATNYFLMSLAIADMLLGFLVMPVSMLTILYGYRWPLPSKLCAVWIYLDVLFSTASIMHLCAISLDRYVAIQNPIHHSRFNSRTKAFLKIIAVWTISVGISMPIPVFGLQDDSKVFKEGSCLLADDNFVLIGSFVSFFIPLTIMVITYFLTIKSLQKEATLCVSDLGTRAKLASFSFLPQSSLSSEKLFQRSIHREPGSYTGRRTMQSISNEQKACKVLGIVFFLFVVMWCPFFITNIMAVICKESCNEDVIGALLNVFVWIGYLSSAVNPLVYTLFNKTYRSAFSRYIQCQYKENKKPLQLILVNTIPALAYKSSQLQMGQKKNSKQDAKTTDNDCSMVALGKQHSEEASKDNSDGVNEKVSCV
Chain of Kappa-type opioid receptor (Rattus norvegicus) (P34975 whole entry): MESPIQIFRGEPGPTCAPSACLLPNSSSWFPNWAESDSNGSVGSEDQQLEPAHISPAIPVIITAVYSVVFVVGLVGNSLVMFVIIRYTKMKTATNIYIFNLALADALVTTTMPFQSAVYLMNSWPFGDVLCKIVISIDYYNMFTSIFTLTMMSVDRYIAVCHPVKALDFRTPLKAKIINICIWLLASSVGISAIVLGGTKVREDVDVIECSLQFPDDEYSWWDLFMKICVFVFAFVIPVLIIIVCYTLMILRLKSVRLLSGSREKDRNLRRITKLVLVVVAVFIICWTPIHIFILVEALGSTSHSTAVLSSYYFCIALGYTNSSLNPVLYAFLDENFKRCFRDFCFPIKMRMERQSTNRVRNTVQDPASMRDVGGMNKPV
Chain of Fibroblast growth factor receptor 1 (Homo sapiens) (P11362 22-822 limits assumed): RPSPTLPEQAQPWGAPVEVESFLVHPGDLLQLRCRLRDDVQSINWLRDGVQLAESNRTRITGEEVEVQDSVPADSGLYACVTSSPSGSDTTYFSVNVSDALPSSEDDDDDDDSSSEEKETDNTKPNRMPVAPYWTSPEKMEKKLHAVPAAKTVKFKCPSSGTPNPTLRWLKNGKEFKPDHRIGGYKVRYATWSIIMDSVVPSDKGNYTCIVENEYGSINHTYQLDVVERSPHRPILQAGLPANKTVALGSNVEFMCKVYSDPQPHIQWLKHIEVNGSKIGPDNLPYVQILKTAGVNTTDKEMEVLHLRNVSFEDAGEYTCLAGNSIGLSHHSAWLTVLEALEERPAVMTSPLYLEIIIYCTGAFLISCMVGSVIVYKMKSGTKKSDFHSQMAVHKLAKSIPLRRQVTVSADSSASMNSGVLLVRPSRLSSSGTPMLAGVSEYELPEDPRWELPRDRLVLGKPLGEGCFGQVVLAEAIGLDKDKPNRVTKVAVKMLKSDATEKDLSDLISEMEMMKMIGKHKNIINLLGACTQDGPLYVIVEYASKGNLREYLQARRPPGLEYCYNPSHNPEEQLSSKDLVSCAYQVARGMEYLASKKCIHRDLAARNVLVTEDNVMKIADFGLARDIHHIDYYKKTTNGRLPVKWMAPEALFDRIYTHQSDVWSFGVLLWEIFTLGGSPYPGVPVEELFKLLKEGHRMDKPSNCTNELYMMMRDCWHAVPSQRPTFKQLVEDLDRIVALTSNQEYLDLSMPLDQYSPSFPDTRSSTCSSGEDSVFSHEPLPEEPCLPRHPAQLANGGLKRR
Chain of Guanylate cyclase soluble subunit alpha-1 (Bos taurus) (P19687 whole entry): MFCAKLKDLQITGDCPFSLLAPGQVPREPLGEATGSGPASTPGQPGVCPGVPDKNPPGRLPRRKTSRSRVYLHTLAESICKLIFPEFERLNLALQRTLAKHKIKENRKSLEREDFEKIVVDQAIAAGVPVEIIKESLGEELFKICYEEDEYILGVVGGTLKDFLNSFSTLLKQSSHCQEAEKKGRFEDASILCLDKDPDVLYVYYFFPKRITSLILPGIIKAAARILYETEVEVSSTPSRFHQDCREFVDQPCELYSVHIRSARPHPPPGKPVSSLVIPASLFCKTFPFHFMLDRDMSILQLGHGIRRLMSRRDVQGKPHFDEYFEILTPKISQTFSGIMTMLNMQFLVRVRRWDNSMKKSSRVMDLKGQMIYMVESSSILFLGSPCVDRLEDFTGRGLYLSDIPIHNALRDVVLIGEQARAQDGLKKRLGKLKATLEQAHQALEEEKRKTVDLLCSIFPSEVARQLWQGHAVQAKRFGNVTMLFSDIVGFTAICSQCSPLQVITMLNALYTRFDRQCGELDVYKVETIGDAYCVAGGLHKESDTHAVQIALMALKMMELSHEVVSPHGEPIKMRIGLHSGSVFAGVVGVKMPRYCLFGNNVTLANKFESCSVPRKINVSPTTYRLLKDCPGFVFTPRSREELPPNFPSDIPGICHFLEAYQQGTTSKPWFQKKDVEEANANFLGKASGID
Chain of Mitogen-activated protein kinase 1 (Homo sapiens) (P28482 whole entry): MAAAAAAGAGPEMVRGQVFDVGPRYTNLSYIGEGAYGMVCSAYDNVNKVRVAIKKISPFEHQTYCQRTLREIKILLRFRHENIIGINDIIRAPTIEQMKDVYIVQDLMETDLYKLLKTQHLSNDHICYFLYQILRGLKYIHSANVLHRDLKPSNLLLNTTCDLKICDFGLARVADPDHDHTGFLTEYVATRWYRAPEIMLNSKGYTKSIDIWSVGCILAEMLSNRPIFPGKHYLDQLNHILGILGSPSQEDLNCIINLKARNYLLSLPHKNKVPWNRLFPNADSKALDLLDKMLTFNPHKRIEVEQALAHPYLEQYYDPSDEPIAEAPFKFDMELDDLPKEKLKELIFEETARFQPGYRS
Chain of Melanocyte-stimulating hormone receptor (Mus musculus) (Q01727 whole entry, looked up): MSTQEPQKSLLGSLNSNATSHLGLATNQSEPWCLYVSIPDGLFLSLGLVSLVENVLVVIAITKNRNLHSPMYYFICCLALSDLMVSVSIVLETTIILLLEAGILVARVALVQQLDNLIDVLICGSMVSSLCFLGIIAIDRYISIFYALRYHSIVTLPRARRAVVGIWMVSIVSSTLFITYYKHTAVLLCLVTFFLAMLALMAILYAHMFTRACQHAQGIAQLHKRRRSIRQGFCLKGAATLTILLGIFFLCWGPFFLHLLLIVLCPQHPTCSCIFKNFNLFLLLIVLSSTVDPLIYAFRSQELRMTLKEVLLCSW
Chain of Muscarinic acetylcholine receptor M3 (Homo sapiens) (P20309 whole entry, looked up): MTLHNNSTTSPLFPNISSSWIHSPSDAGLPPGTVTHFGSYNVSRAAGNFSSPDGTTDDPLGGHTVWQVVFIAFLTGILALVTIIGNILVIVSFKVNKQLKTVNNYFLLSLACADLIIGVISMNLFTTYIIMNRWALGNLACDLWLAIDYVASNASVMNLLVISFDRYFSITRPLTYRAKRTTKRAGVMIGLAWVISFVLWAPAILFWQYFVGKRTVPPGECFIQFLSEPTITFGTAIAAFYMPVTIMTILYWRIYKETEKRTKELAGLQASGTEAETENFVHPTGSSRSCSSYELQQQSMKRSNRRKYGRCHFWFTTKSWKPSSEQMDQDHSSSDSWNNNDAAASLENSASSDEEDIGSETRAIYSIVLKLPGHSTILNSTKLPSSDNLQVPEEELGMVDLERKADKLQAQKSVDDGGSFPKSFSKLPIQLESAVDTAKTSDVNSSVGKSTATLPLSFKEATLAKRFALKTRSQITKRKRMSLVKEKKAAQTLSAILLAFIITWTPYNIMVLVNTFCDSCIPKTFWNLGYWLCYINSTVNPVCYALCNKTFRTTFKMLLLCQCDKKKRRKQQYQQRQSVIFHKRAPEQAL
Chain of Melanocortin receptor 4 (Homo sapiens) (P32245 whole entry): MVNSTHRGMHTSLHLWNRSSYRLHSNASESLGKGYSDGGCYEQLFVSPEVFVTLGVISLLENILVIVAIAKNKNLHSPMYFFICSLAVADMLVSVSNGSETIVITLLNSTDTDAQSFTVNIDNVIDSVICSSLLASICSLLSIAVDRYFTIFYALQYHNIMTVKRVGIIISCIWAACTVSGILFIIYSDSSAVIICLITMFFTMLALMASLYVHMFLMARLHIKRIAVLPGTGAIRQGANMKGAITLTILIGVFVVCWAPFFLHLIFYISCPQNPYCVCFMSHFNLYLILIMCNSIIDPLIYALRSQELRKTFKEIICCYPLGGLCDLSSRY

CN(C)C(=O)Cn1cc(-c2nc(C3(c4ccc(-c5cnc(N)nc5)cc4)CC3)no2)cn1 [BI 0153]
residual activity [1]: 70% | residual activity [2]: 67%

CN(C)C(=O)Cn1cc(-c2nc([C@@](C)(c3ccc(-c4cnc(N)nc4)cc3)C3CC3)no2)cn1 [BI 665915]
residual activity [3]: 109% | residual activity [4]: 109% | residual activity [5]: 83% | residual activity [6]: 99% | residual activity [7]: 97% | residual activity [8]: 132% | residual activity [9]: 102% | residual activity [10]: 84% | residual activity [11]: 102% | residual activity [12]: 80% | residual activity [13]: 123% | residual activity [14]: 100% | residual activity [15]: 91% | residual activity [16]: 100% | residual activity [17]: 96% | residual activity [18]: 102% | residual activity [19]: 95% | residual activity [20]: 98% | residual activity [21]: 105% | residual activity [22]: 97% | activity at 10 µM [23]: 73% (not active) | residual activity [24]: 100% | residual activity [25]: 101% | residual activity [26]: 104%

Reference: ChEMBL document CHEMBL4507276 (2021)
